Results from patent US8598179B2, “Pyrazole-carboxamide derivatives as P2Y12 antagonists” (Sanofi, priority 2007, dated 2013).

system: human platelet rich plasma (ADP-induced platelet aggregation); assay: Inhibition of human platelet aggregation, "Born"-method (single cuvettes); format: cell-based; details: 0.1 h, aggregation induced by ADP, single use cuvettes, platelet aggregation profiler, 6 minutes at 37° C.
Protocol: Inhibition of Human Platelet Aggregation
Alternatively to a binding assay which measures a compound's ability to bind to the P2Y12 receptor, the effect on cellular function was also determined. This ability of the compound was evaluated in two platelet aggregation assays: in 96-well plates and with the “Born”-method using single cuvettes.
Whole blood was collected from healthy volunteers using 20 ml syringes containing 2 ml of buffered Citrate. The anticoagulated whole blood was transferred into 15 ml polypropylene conical tubes (10 ml per tube). The tubes were centrifuged for 15 minutes at 340×g at RT without using the centrifuge brake. This procedure leads to a pellet of cellular components and a supernatant of platelet rich plasma (PRP). The PRP layer was collected from each tube and pooled for each donor. To avoid carry over of cellular components following centrifugation, approximately 5 ml of PRP was left in the tube. The platelet concentration was determined using a Coulter Counter.
The 15 ml tubes containing the pellet of cellular components were centrifuged again for 10 minutes at 1940×g. This pelleted out most particulate blood constituents remaining, leaving a layer of Platelet Poor Plasma (PPP). The PPP was collected for each donor. The PRP layer, previously set aside, was diluted with PPP to a final concentration of approximately 3×E8 platelets/ml with the PPP.
The human platelet aggregation assay is performed in single use cuvettes using the platelet aggregation profiler (PAP-4 or -8, Bio/Data corporation).
In the assay cuvette 4 μl of test compound at 100× final concentration in DMSO is mixed with 392 μl fresh PRP and incubated for 2 minutes at 37° C. with 1.200 rpm stirring. Following that incubation period, 4 μl of 250 μM ADP is added to the reaction mix. […] After that aggregation is measured over 6 minutes at 37° C. with 1.200 rpm stirring. Results of the assay are expressed as % inhibition, and are calculated using maximum aggregation (Tmax) or area under curve (AUC) of the absorbance over 6 minutes. […]

| SMILES | IC50 [nM] |
| --- | --- |
| CCOC(=O)N1CCN(C(=O)[C@H](CCC(=O)O)NC(=O)c2cc(OCC(=O)C(C)(C)C)n(-c3ccccc3)n2)CC1 [Example 80, 4-((S)-4-Carboxy-2-{[5-(3,3-dimethyl-2-oxo-butoxy)-1-phenyl-1H-pyrazole-3-carbonyl]-amino}-butyryl)-piperazine-1-carboxylic acid ethyl ester] | 2460 |
| CCOC(=O)N1CCN(C(=O)[C@H](CCC(=O)O)NC(=O)c2cc(OC3(C(=O)OCC)CCC3)n(-c3ccccc3)n2)CC1 [Example 1, 4-((S)-4-Carboxy-2-{[5-(1-ethoxycarbonyl-cyclobutoxy)-1-phenyl-1H-pyrazole-3-carbonyl]-amino}-butyryl)-piperazine-1-carboxylic acid ethyl ester] | 2930 |
| CCOC(=O)COc1cc(C(=O)N[C@@H](CCC(=O)O)C(=O)N2CCN(C(=O)OCC)CC2)nn1-c1ccccc1 [Example 5, 4-{(S)-4-Carboxy-2-[(5-ethoxycarbonylmethoxy-1-phenyl-1H-pyrazole-3-carbonyl)-amino]-butyryl}-piperazine-1-carboxylic acid ethyl ester] | 2480 |
